Measurements from patent US20100173983A1, “METHOD FOR INDUCING AUTOPHAGY” (priority 2007, published 2010).

Key:
Format in all cases: cell-based, Human
[1] = test system: XIAP; experiment: Western blot of R-182 cells, XIAP; details: 5 μg/ml over 24 hr
Excerpt: (§1) FIG. 8. Molecular evidence of autophagic cell death in R-182 ovarian cancer cells induced by Cpd 1. […] B, Beclin 1 binds to Bcl-2. Immunoprecipitation study using mitochondrial preparations of cells pre-treated with Cpd 1 as stated in A, and subjected to beclin 1 immunoprecitation. Immunoprecipitated fractions were washed in PBS, subjected to SDS-PAGE, blotted and then probed with a mouse anti-Bcl-2 antibody. Actin and Topo-1 were used as loading control. C, Depolarized cells resulting from over-expression of Bax and Beclin 1 following administration of Cpd 1. Cells were treated with Cpd 1 as described in A, pelleted and washed in HBSS and the cell pellet resuspended in the reaction buffer for JC-1 (Biovision, Inc. MitoCapture™ K250-100). HBSS-washed cells were analysed by flow cytometry (λexcit=488 nm and (λemit=530 nm for green fluorescence (depolarized) or 590 nm for red fluorescence (polarized). 10,000 gated events were measured with a BD FACScalibur. Results were expressed as mean±standard deviation (n=3).
(§2) After treatment with Cpd 1, protein was extracted from cells and measured as previously described (Kamsteeg et al., 2003). For separation of the cytoplasmic and mitochondrial fractions, cell pellets were processed using the ApoAlert Cell Fractionation kit (Promega) according to the manufacturer's instructions. […]

[2] = test system: caspase 9; experiment: Caspase-Glo 9 assay in R182 cells; details: R182 ovarian cancer explants; dose response and duration of exposure (5 μg/ml, 0-25 hr)
Protocol: FIG. 3. Comparative induction of caspase 9 in R182 ovarian cancer explants by Cpd 1 and dehydroequol using either dose response (A) or duration of exposure (B). Caspase 9 activity was assessed using the Caspase-Glo 9 assay.
For caspase activity assays, 10 μg of protein in 50 μL total volume was mixed with 50 μL of equilibrated Caspase-Glo 3/7, 8, or 9 reagents (Promega). After incubating at room temperature for 1 hour, luminescence was measured using TD 20/20 Luminometer (Turner Designs, Sunnyvale, Calif.). Blank values were subtracted and fold-increase in activity was calculated based on activity measured from untreated cells. Each sample was measured in triplicate.

[3] = test system: cytochrome c; experiment: Western blot of R-182 cytoplasmic extracts, cytochrome c; details: R-182 cells, 5 μg/ml over 8 hr
Protocol: FIG. 9. Cpd 1-induced cell death involves cytochrome c translocation to the cytoplasm. R-182 cells treated with Cpd 1 (5 μg/ml) over 8 hr and the cytoplasmic and mitochondrial fractions were separated. […] Cox-4 was included to show the integrity of the mitochondrial preparation.
(§3) After treatment with Cpd 1, protein was extracted from cells and measured as previously described (Kamsteeg et al., 2003). For separation of the cytoplasmic and mitochondrial fractions, cell pellets were processed using the ApoAlert Cell Fractionation kit (Promega) according to the manufacturer's instructions. 20 μg protein was denatured in sample buffer (2.5% sodium dodecyl sulfate [SDS], 10% glycerol, 5% β-mercapto-ethanol, 0.15 M Tris, pH 6.8, and 0.01% bromophenol blue) and subjected to 12% SDS polyacrylamide gel electrophoresis (SDS-PAGE) as previously described (Kamsteeg et al., 2003). The following antibodies and concentrations were used: mouse anti-Bax (BD Biosciences, 1:500), rabbit anti-actin (Sigma, 1:10,000), rabbit anti-cytochrome c (BD Biosciences, 1:1,000), mouse anti-Cox-4 (BD Biosciences, 1:500), rabbit anti-beclin 1 (Santa Cruz Biotechnology, 1:600), mouse anti LC3 (Nanotools, 1:500). […] Proteins were observed using enhanced chemiluminescence (Pierce, Rockford, Ill.).
Cpd 1-induced cell death also involves cytochrome c translocation to the cytoplasm (FIG. 9). […]

[4] = test system: Akt; experiment: Western blot of R-182 lysates, Akt; details: R-182 cells, 5 μg/ml
Excerpt: (§4) FIG. 10. The expression of upstream regulators of autophagy are also modulated in response to Cpd 1. […] B-actin was included as a loading control. B, Proposed mechanism of Cpd 1 induced autophagic cell death.
as §3

[5] = test system: Beclin 1 / Bcl-2; experiment: Beclin 1 immunoprecipitation probed with anti-Bcl-2; details: mitochondrial preparations of Cpd 1 treated cells
Excerpt: as §1
To measure membrane depolarization cells were treated with Cpd 1 as described above, pelleted and washed in HBSS and the cell pellet resuspended in the reaction buffer for JC-1 (Biovision, Inc. MitoCapture™ K250-100). HBSS-washed cell pellets were resuspended in 1 mL aliquots of the Mitocapture reagent buffer with 1 μL of JC-1 solution in DMSO (Biovision).

[6] = test system: CP70 (cell line), R179, R182, R585 (primary ovarian cancer explants); experiment: Cell viability, CellTiter 96 Aqueous One Solution Cell Proliferation Assay, ovarian cancer cells; details: concentrations up to 10 μg/ml, 24 hr exposure
Protocol: (§5) FIG. 1. Comparative cytotoxicity of dehydroequol and Compound I as described herein (Cpd 1) against normal and ovarian cancer cells: CP70 (cell line), R179, R182, R585 (primary ovarian cancer explants) and OSE (normal ovarian surface epithelial cells). […] Both compounds were tested at concentrations up to 10 μg/ml and exposed to cells for 24 hr.
(§6) Human EOC cell lines A2780, CP70, and OSE were propagated in RPMI plus 10% fetal bovine serum (FBS) (Gemini Bio-Products, Woodland, Calif.) at 37° C. in a 5% CO2 atmosphere. Primary EOC cells (R179, R182, R585) were isolated from malignant ovarian ascites and cultured as previously described (Kamsteeg et al., 2003). Dehydroequol and Compound 1 (Cpd 1) were obtained from Novogen (Australia). All other reagents were purchased from Sigma Chemical (St. Louis, Mo.). The pan caspase inhibitor Z-VAD-FMK was obtained from R&D Systems (Minneapolis, Minn.).
(§7) Cell viability was evaluated using the CellTiter 96 Aqueous One Solution Cell Proliferation Assay (Promega, Madison, Wis.) according to the manufacturer's instructions. The values from the treated cells were compared with the values generated from the untreated cells and reported as percent viability. Each experiment was performed in triplicate.

[7] = test system: mTOR; experiment: Western blot of R-182 lysates, mTOR
Excerpt: as §4, §3

[8] = test system: LC3-II; experiment: Western blot of R-182 cytoplasmic preparations, LC3-II; details: R-182 cells, 5 μg/ml over 24 hr
Excerpt: as §1, §2

[9] = test system: OSE (normal ovarian surface epithelial cells); experiment: Cell viability, CellTiter 96 assay, normal cells; details: concentrations up to 10 μg/ml, 24 hr exposure
Protocol: as §5, §6, §7

`COc1ccc([C@H]2c3ccc(O)c(C)c3OC[C@H]2c2ccc(O)cc2)cc1` (stereo in doubt) [Cpd 1, 3-(4-hydroxyphenyl)-4-(4-methoxyphenyl)-8-methylchroman-7-ol] was tested, and the XIAP expression [1] was “remains unchanged”, the “caspase 9 activity” value [2] was “did not induce caspase 9 activity” and the “occurrence of cytochrome c in the cytoplasm” value [3] was “increased over time”. The “Akt phosphorylation (p-Akt)” value [4] was “reduced up to 120 minutes post exposure”, the “total Akt (t-Akt) expression” value [4] was “remained unchanged” and the “Beclin and Bcl-2 co-precipitation” value [5] was “co-precipitate at higher concentrations compared to control”. The “cell viability of ovarian cancer cells” value [6] was “decreased cell viability of all primary ovarian cancer cells”, the mTOR expression ([7]; R-182 cells, 5 μg/ml) was “reduced up to 120 minutes post exposure” and the “phosphorylated mTOR levels in soluble extracts of cells” value ([7]; cells treated in vitro, compared to control) was “decreased”. For the same molecule, the LC3-II expression [8] was “increased over time” and the “toxicity against normal OSE cells” value [9] was “some toxicity”.
